Data published in US6875872B1, “Compounds” (AstraZeneca, priority 1993, dated 2005).

Assays:
[1] = Racemization experiment in aqueous phosphate buffer pH 11 warmed at 37° C.; type: physicochemical; conditions: aqueous phosphate buffer solution pH=11, c=10^-5 M, 26 hours at 37° C.
[2] = Stability towards racemization at different pH values (aqueous buffer solutions, refrigerator, optical purity by chiral column chromatography); type: physicochemical; conditions: for racemization (stereochemical stability): after 16 days
Procedure: Stability Towards Racemization at Different pH Values
The stability of the optically pure compounds of the invention against racemization has been measured at low concentrations in a refrigerator in aqueous buffer solutions at pH 8, 9.3, 10 and 11.2. The stereochemical stability was measured by comparing the optical purity for the (−)-isomer of 5-methoxy-2-[[(4-methoxy-3,5-dimethyl-2-pyridinyl)-methyl]sulfinyl]-1H-benzimidazole in buffer solution immediately after dissolving and after several days. The measurement was performed by chromatography on an analytical chiral column.

SMILES | racemization [1] | racemization (stereochemical stability) ([2]; aqueous buffer solution pH 8, refrigerator) | racemization (stereochemical stability) ([2]; aqueous buffer solution pH 9.3, refrigerator) | racemization (stereochemical stability) ([2]; aqueous buffer solution pH 10, refrigerator) | racemization (stereochemical stability, optical purity immediately after dissolving vs after several days) ([2]; aqueous buffer solution pH 11.2, refrigerator, low concentration, after 21 days) | chemical degradation of the compound ([2]; aqueous buffer solutions pH 8, 9.3 and 10, refrigerator (compared with pH 11.2))
COc1ccc2[nH]c([S+]([O-])Cc3ncc(C)c(OC)c3C)nc2c1.[Na+] (single isomer, unassigned; (+)) [(+)-5-methoxy-2-[[(4-methoxy-3,5-dimethyl-2-pyridinyl)methyl]sulfinyl]-1H-benzimidazole sodium salt] | without any racemization at all being observed | – | – | – | – | –
COc1ccc2[nH]c([S+]([O-])Cc3ncc(C)c(OC)c3C)nc2c1 (single isomer, unassigned; (-)) [(−)-5-methoxy-2-[[(4-methoxy-3,5-dimethyl-2-pyridinyl)methyl]-sulfinyl]-1H-benzimidazole] | – | at none of these pH values a detectable racemization was obtained | at none of these pH values a detectable racemization was obtained | at none of these pH values a detectable racemization was obtained | no racemization | more apparent
